Test results: PubChem BioAssay AID1963853 (Molecular Pharmacology Branch, DTP, NCI, 2024)

System: 266295-075-R-J1-PDC spheroid viability
Experiment: Anticancer human tumor 266295-075-R-J1-PDC patient-derived head and neck squamous carcinoma cell line growth inhibition [POLQ]
Conditions: spheroids with HUVEC and MSC; for IC50: curve of first compound; for viability, T/C: stronger effect = lower value
Method in brief: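 Patient-derived tumour cells were co-cultured with HUVEC and mesenchymal stem cells as multicellular spheroids at 37 °C. They were treated with POLQ inhibitors (novobiocin, ART-558, RP6685) alone or combined with other agents. Top concentrations were at or near clinical Cmax (otherwise 10 microM; SN-38 at 1 microM), decreasing in half-log steps.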

[1] = second compound 0.0316 µM, first compound 0.0316 µM
[2] = second compound 0.0316 µM, first compound 0.1 µM
[3] = second compound 0.0316 µM, first compound 0.316 µM
[4] = second compound 0.0316 µM, first compound 1 µM
[5] = second compound 0.0316 µM, first compound 3.16 µM
[6] = second compound 0.0316 µM, first compound 10 µM
[7] = second compound 0.1 µM, first compound 0.0316 µM
[8] = second compound 0.1 µM, first compound 0.1 µM
[9] = second compound 0.1 µM, first compound 0.316 µM
[10] = second compound 0.1 µM, first compound 1 µM
[11] = second compound 0.1 µM, first compound 3.16 µM
[12] = second compound 0.1 µM, first compound 10 µM
[13] = second compound 0.316 µM, first compound 0.0316 µM
[14] = second compound 0.316 µM, first compound 0.1 µM
[15] = second compound 0.316 µM, first compound 0.316 µM
[16] = second compound 0.316 µM, first compound 1 µM
[17] = second compound 0.316 µM, first compound 3.16 µM
[18] = second compound 0.316 µM, first compound 10 µM
[19] = second compound 1 µM, first compound 0.0316 µM
[20] = second compound 1 µM, first compound 0.1 µM
[21] = second compound 1 µM, first compound 0.316 µM
[22] = second compound 1 µM, first compound 1 µM
[23] = second compound 1 µM, first compound 3.16 µM
[24] = second compound 1 µM, first compound 10 µM
[25] = second compound 3.16 µM, first compound 0.0316 µM
[26] = second compound 3.16 µM, first compound 0.1 µM
[27] = second compound 3.16 µM, first compound 0.316 µM
[28] = second compound 3.16 µM, first compound 1 µM
[29] = second compound 3.16 µM, first compound 3.16 µM
[30] = second compound 3.16 µM, first compound 10 µM
[31] = second compound 10 µM, first compound 0.0316 µM
[32] = second compound 10 µM, first compound 0.1 µM
[33] = second compound 10 µM, first compound 0.316 µM
[34] = second compound 10 µM, first compound 1 µM
[35] = second compound 10 µM, first compound 3.16 µM
[36] = second compound 10 µM, first compound 10 µM
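Note: spheroids exposed to compounds for seven days before readout.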

## C=CC(=O)N1CCN(c2nc(=O)n(-c3c(C)ccnc3C(C)C)c3nc(-c4c(O)cccc4F)c(F)cc23)C(C)C1 (stereo not drawn) + Nc1ccc(C#CCN(C(=O)Cc2ncc(C(F)(F)F)cc2C(F)(F)F)c2ccc(F)cc2)nn1
Second compound 0.0316 µM
  IC50: > 10 µM
Second compound 0.1 µM
  IC50: > 10 µM
Second compound 0.316 µM
  IC50: > 10 µM
Second compound 1 µM
  IC50: > 10 µM
Second compound 3.16 µM
  IC50: > 10 µM
Second compound 10 µM
  IC50: > 10 µM
[1]
  viability, T/C: 108%
[2]
  viability, T/C: 96.4%
[3]
  viability, T/C: 101%
[4]
  viability, T/C: 96.8%
[5]
  viability, T/C: 112%
[6]
  viability, T/C: 107%
[7]
  viability, T/C: 96%
[8]
  viability, T/C: 106%
[9]
  viability, T/C: 100%
[10]
  viability, T/C: 111%
[11]
  viability, T/C: 108%
[12]
  viability, T/C: 112%
[13]
  viability, T/C: 89.8%
[14]
  viability, T/C: 107%
[15]
  viability, T/C: 90.6%
[16]
  viability, T/C: 107%
[17]
  viability, T/C: 145%
[18]
  viability, T/C: 125%
[19]
  viability, T/C: 101%
[20]
  viability, T/C: 95.5%
[21]
  viability, T/C: 133%
[22]
  viability, T/C: 101%
[23]
  viability, T/C: 124%
[24]
  viability, T/C: 73.9%
[25]
  viability, T/C: 98.4%
[26]
  viability, T/C: 93.8%
[27]
  viability, T/C: 94.2%
[28]
  viability, T/C: 108%
[29]
  viability, T/C: 117%
[30]
  viability, T/C: 103%
[31]
  viability, T/C: 106%
[32]
  viability, T/C: 72.8%
[33]
  viability, T/C: 92.3%
[34]
  viability, T/C: 106%
[35]
  viability, T/C: 105%
[36]
  viability, T/C: 108%

## CC(=O)O[C@H]1C(=O)[C@@]2(C)[C@H]([C@H](OC(=O)c3ccccc3)[C@]3(O)C[C@H](OC(=O)[C@H](O)[C@@H](NC(=O)c4ccccc4)c4ccccc4)C(C)=C1C3(C)C)[C@]1(OC(C)=O)CO[C@@H]1C[C@@H]2O + Nc1ccc(C#CCN(C(=O)Cc2ncc(C(F)(F)F)cc2C(F)(F)F)c2ccc(F)cc2)nn1
Second compound 0.0316 µM
  IC50: > 3 µM
Second compound 0.1 µM
  IC50: > 3 µM
Second compound 0.316 µM
  IC50: > 3 µM
Second compound 1 µM
  IC50: > 3 µM
Second compound 3.16 µM
  IC50: > 3 µM
Second compound 10 µM
  IC50: > 3 µM
Second compound 0.0316 µM, first compound 0.00949 µM
  viability, T/C: 98.3%
Second compound 0.0316 µM, first compound 0.03 µM
  viability, T/C: 78.9%
Second compound 0.0316 µM, first compound 0.0949 µM
  viability, T/C: 73.9%
Second compound 0.0316 µM, first compound 0.3 µM
  viability, T/C: 76%
Second compound 0.0316 µM, first compound 0.949 µM
  viability, T/C: 78.8%
Second compound 0.0316 µM, first compound 3 µM
  viability, T/C: 78.3%
Second compound 0.1 µM, first compound 0.00949 µM
  viability, T/C: 75.6%
Second compound 0.1 µM, first compound 0.03 µM
  viability, T/C: 84%
Second compound 0.1 µM, first compound 0.0949 µM
  viability, T/C: 69.3%
Second compound 0.1 µM, first compound 0.3 µM
  viability, T/C: 69.3%
Second compound 0.1 µM, first compound 0.949 µM
  viability, T/C: 70.7%
Second compound 0.1 µM, first compound 3 µM
  viability, T/C: 71.3%
Second compound 0.316 µM, first compound 0.00949 µM
  viability, T/C: 94.1%
Second compound 0.316 µM, first compound 0.03 µM
  viability, T/C: 82.9%
Second compound 0.316 µM, first compound 0.0949 µM
  viability, T/C: 63.7%
Second compound 0.316 µM, first compound 0.3 µM
  viability, T/C: 55.3%
Second compound 0.316 µM, first compound 0.949 µM
  viability, T/C: 77.5%
Second compound 0.316 µM, first compound 3 µM
  viability, T/C: 61.4%
Second compound 1 µM, first compound 0.00949 µM
  viability, T/C: 81.3%
Second compound 1 µM, first compound 0.03 µM
  viability, T/C: 59.1%
Second compound 1 µM, first compound 0.0949 µM
  viability, T/C: 69%
Second compound 1 µM, first compound 0.3 µM
  viability, T/C: 70.7%
Second compound 1 µM, first compound 0.949 µM
  viability, T/C: 72.7%
Second compound 1 µM, first compound 3 µM
  viability, T/C: 66%
Second compound 3.16 µM, first compound 0.00949 µM
  viability, T/C: 71%
Second compound 3.16 µM, first compound 0.03 µM
  viability, T/C: 80.5%
Second compound 3.16 µM, first compound 0.0949 µM
  viability, T/C: 77.4%
Second compound 3.16 µM, first compound 0.3 µM
  viability, T/C: 62.8%
Second compound 3.16 µM, first compound 0.949 µM
  viability, T/C: 65%
Second compound 3.16 µM, first compound 3 µM
  viability, T/C: 67.4%
Second compound 10 µM, first compound 0.00949 µM
  viability, T/C: 72.4%
Second compound 10 µM, first compound 0.03 µM
  viability, T/C: 74.6%
Second compound 10 µM, first compound 0.0949 µM
  viability, T/C: 63%
Second compound 10 µM, first compound 0.3 µM
  viability, T/C: 71.1%
Second compound 10 µM, first compound 0.949 µM
  viability, T/C: 76.7%
Second compound 10 µM, first compound 3 µM
  viability, T/C: 77.2%

## CC1COCCN1c1cc(-c2ccnn2C)c2ccnc(-c3ccn[nH]3)c2n1 (stereo not drawn) + Nc1ccc(C#CCN(C(=O)Cc2ncc(C(F)(F)F)cc2C(F)(F)F)c2ccc(F)cc2)nn1
Second compound 0.0316 µM
  IC50: 3.04 µM
Second compound 0.1 µM
  IC50: 2.55 µM
Second compound 0.316 µM
  IC50: 0.284 µM
Second compound 1 µM
  IC50: 1.29 µM
Second compound 3.16 µM
  IC50: 2.02 µM
Second compound 10 µM
  IC50: 1.14 µM
[1]
  viability, T/C: 92.3%
[2]
  viability, T/C: 73.2%
[3]
  viability, T/C: 78%
[4]
  viability, T/C: 63.6%
[5]
  viability, T/C: 46.9%
[6]
  viability, T/C: 36.5%
[7]
  viability, T/C: 92.1%
[8]
  viability, T/C: 84.4%
[9]
  viability, T/C: 69.1%
[10]
  viability, T/C: 57.5%
[11]
  viability, T/C: 52.2%
[12]
  viability, T/C: 34.3%
[13]
  viability, T/C: 90.2%
[14]
  viability, T/C: 86.1%
[15]
  viability, T/C: 44.8%
[16]
  viability, T/C: 55.6%
[17]
  viability, T/C: 42.3%
[18]
  viability, T/C: 42.5%
[19]
  viability, T/C: 85%
[20]
  viability, T/C: 76.3%
[21]
  viability, T/C: 59.1%
[22]
  viability, T/C: 52.1%
[23]
  viability, T/C: 46.2%
[24]
  viability, T/C: 26.8%
[25]
  viability, T/C: 103%
[26]
  viability, T/C: 83.8%
[27]
  viability, T/C: 74%
[28]
  viability, T/C: 60.7%
[29]
  viability, T/C: 43.1%
[30]
  viability, T/C: 30.7%
[31]
  viability, T/C: 97.2%
[32]
  viability, T/C: 91.9%
[33]
  viability, T/C: 69.5%
[34]
  viability, T/C: 54.7%
[35]
  viability, T/C: 35.8%
[36]
  viability, T/C: 35.6%

## COc1cc(C2c3cc4c(cc3C(OC3OC5COC(C)OC5C(O)C3O)C3COC(=O)C23)OCO4)cc(OC)c1O (stereo not drawn) + Nc1ccc(C#CCN(C(=O)Cc2ncc(C(F)(F)F)cc2C(F)(F)F)c2ccc(F)cc2)nn1
Second compound 0.0316 µM
  IC50: > 10 µM
Second compound 0.1 µM
  IC50: > 10 µM
Second compound 0.316 µM
  IC50: > 10 µM
Second compound 1 µM
  IC50: > 10 µM
Second compound 3.16 µM
  IC50: > 10 µM
Second compound 10 µM
  IC50: > 10 µM
[1]
  viability, T/C: 81.1%
[2]
  viability, T/C: 103%
[3]
  viability, T/C: 77.6%
[4]
  viability, T/C: 94.4%
[5]
  viability, T/C: 98.9%
[6]
  viability, T/C: 82.8%
[7]
  viability, T/C: 84.1%
[8]
  viability, T/C: 97%
[9]
  viability, T/C: 103%
[10]
  viability, T/C: 97.4%
[11]
  viability, T/C: 111%
[12]
  viability, T/C: 80.1%
[13]
  viability, T/C: 97%
[14]
  viability, T/C: 127%
[15]
  viability, T/C: 82.2%
[16]
  viability, T/C: 90.7%
[17]
  viability, T/C: 94.9%
[18]
  viability, T/C: 90.6%
[19]
  viability, T/C: 104%
[20]
  viability, T/C: 94.1%
[21]
  viability, T/C: 92.3%
[22]
  viability, T/C: 96.4%
[23]
  viability, T/C: 92.3%
[24]
  viability, T/C: 88.8%
[25]
  viability, T/C: 75.9%
[26]
  viability, T/C: 118%
[27]
  viability, T/C: 84.8%
[28]
  viability, T/C: 93.2%
[29]
  viability, T/C: 107%
[30]
  viability, T/C: 90.5%
[31]
  viability, T/C: 90.8%
[32]
  viability, T/C: 92.9%
[33]
  viability, T/C: 95.2%
[34]
  viability, T/C: 81.2%
[35]
  viability, T/C: 95.8%
[36]
  viability, T/C: 77.1%
